Series [1] relates to hippocampus and amygdala neurons. Briefly: Loss of hippocampus and amygdala neurons after kainic acid injections. In kind it is in vivo, mouse. As to conditions: FIG. 14. On the procedure: (§1) To induce seizures, both WT female (n=6) and KO female (n=5) mice and WT male (n=5) and KO male (n=6) mice were injected i.p. with 30 mg/kg KA.
The effect of kainic acid injections on memory function was also investigated by examining hippocampus and amygdala neurons.

The next series deals with 129/Sv mice. Kind of series: Seizure induction by kainic acid injection in mice. The format is in vivo, mouse. Particulars: 30 mg/kg KA i.p.; WT and SIRT3 KO, female and male mice. How it is done:
Littermate 129/Sv (6-8 weeks old) mice were used for the studies. SIRT3−/− mice were in a 129/sv background. Mice were housed under controlled temperature (25° C.) and light, and fed normal chow.
as §1

The test system of series [2] is primary cerebellar granule neurons. Kind of series: Cell survival measurement (MTT assay) after kainic acid treatment. The format is cell-based, mouse. As to conditions: T3-/- versus wild-type neurons; 50 uM kainic acid, 4 hr and 24 hrs; FIG. 9. How it is done:
SH-SY5Y cells were cultured in Dulbecco's Modified Eagle's Medium (DMEM) supplemented with 10% Fetal Calf Serum (FCS). SH-SY5Y cells were transfected with Lipofectamine 2000 (Invitrogen, Carlsbad, Calif.). Granule neuron cultures were prepared from cerebella of postnatal day 5 mouse pups. Neurons were placed on polyornithine-coated 96-well plates and grown in Basal Medium Eagle (BME) (Sigma, St. Louis, Mo.) supplemented with 10% calf serum (Hyclone Laboratories, Logan, Utah), 25 mM KCl, 2 mM glutamine, penicillin, and streptomycin. One day after cultures were prepared they were treated with 10 μM of the antimitotic agent cytosine-D-arabinofuranoside (Sigma, St. Louis, Mo.) to prevent the proliferation of non-neuronal cells.
The resistance to kainic acid of primary granule neurons derived from WT and SIRT3 null mice was quantified as the percentage of live cells after a 4 hr and 24 hrs treatment with 50 uM Kainic acid. The quantitation of dead cells upon Kainic acid treatment was carried out using the MTT assay was performed using CellTiter 96 Nonradioactive Cell Proliferation Assay kit (Promega).

The record followed here is patent publication US20150233949A1, “DETECTION AND MODULATION OF CYTOCHROME C ACETYLATION” (President and Fellows of Harvard College, priority 2008, published 2015).

Each structure is given as a SMILES string.

For `C=C(C)[C@H]1CN[C@H](C(=O)O)[C@H]1CC(=O)O` [kainic acid], the “loss of hippocampus and amygdala neurons” value in series [1] was “loss of hippocampus and amygdala neurons”. For the same compound, the seizures entry in the series on 129/Sv mice is recorded as “caused seizures in all mice”. Moreover, the cell survival result in series [2] was “reduced cell survival”.
